Results on five compounds are retold here after paper PMC8745178, “Methyl 2-Halo-4-Substituted-5-Sulfamoyl-Benzoates as High Affinity and Selective Inhibitors of Carbonic Anhydrase IX” (International Journal of Molecular Sciences, 2021).

One data set concerns the target CAIX (Homo sapiens, UniProt Q16790). As to the kind of experiment: fluorescent thermal shift assay (FTSA), CAIX. The class given is binding. The following applies: for ΔGobs CAIX: pH 7.
The next data set concerns the target CAIII (Homo sapiens, UniProt P07451). As to the kind of experiment: fluorescent thermal shift assay (FTSA), CAIII. The class given is binding. The following applies: 37 °C; for ΔGintr CAIII: converted from Kd_intr, independent of pH; for ΔGobs CAIII: converted from Kd_obs, pH 7.0, FTSA.
A further data set concerns the target CAVB (Homo sapiens, UniProt Q9Y2D0). The data set can be described thus: fluorescent thermal shift assay (FTSA), CAVB. In kind it is binding. The conditions noted are these: 37 °C; for ΔGintr CAVB: converted from Kd_intr, independent of pH; for ΔGobs CAVB: converted from Kd_obs, pH 7.0, FTSA.
Another data set deals with CAXIII (Homo sapiens, UniProt Q8N1Q1). The data set can be described thus: fluorescent thermal shift assay (FTSA), CAXIII. In kind it is binding. The conditions noted are these: 37 °C; for ΔGintr CAXIII: converted from Kd_intr, independent of pH; for ΔGobs CAXIII: converted from Kd_obs, pH 7.0, FTSA.
For the next data set, the target named is CAVA (Homo sapiens, UniProt P35218). As to the kind of experiment: fluorescent thermal shift assay (FTSA), CAVA. In kind it is binding. The following applies: 37 °C; for ΔGintr CAVA: converted from Kd_intr, independent of pH; for ΔGobs CAVA: converted from Kd_obs, pH 7.0, FTSA.
The nature of data set [1]: determination of pKa of the sulfonamide group by UV-VIS spectra at various pH. In kind it is physicochemical. The following applies: for f RSO2NH-, fraction of deprotonated sulfonamide: at pH 7.0, calculated from pKa; for pKa: calculated from spectra at various pH, 37 °C.
The target of the next data set is CAI (Homo sapiens, UniProt P00915). As to the kind of experiment: fluorescent thermal shift assay (FTSA), CAI. The conditions noted are these: 37 °C; for ΔGintr CAI: converted from Kd_intr, independent of pH; for ΔGobs CAI: converted from Kd_obs, pH 7.0, FTSA. The class given is binding.
Data set [2] can be described thus: solubility observed visually and in absorption spectra. In kind it is physicochemical. The arrangement: key: low solubility, LS.
In the next data set the target is CAII (Homo sapiens, UniProt P00918). As to the kind of experiment: fluorescent thermal shift assay (FTSA), CAII. In kind it is binding. The conditions noted are these: 37 °C; for ΔGintr CAII: converted from Kd_intr, independent of pH; for ΔGobs CAII: converted from Kd_obs, pH 7.0, FTSA.
For a further data set, the target named is CAVI (Homo sapiens, UniProt P23280). As to the kind of experiment: fluorescent thermal shift assay (FTSA), CAVI. The class given is binding. The conditions noted are these: 37 °C; for ΔGintr CAVI: converted from Kd_intr, independent of pH; for ΔGobs CAVI: converted from Kd_obs, pH 7.0, FTSA.
The target in the next data set is CAIV (Homo sapiens, UniProt P22748). As to the kind of experiment: fluorescent thermal shift assay (FTSA), CAIV. The class given is binding. The conditions noted are these: 37 °C; for ΔGintr CAIV: converted from Kd_intr, independent of pH; for ΔGobs CAIV: converted from Kd_obs, pH 7.0, FTSA.
In the next data set the target is CAXIV (Homo sapiens, UniProt Q9ULX7). The data set can be described thus: fluorescent thermal shift assay (FTSA), CAXIV. The class given is binding. The conditions noted are these: 37 °C; for ΔGintr CAXIV: converted from Kd_intr, independent of pH; for ΔGobs CAXIV: converted from Kd_obs, pH 7.0, FTSA.
A further data set addresses CAVII (Homo sapiens, UniProt P43166). As to the kind of experiment: fluorescent thermal shift assay (FTSA), CAVII. In kind it is binding. The following applies: 37 °C; for ΔGobs CAVII: converted from Kd_obs, pH 7.0, FTSA; for ΔGintr CAVII: converted from Kd_intr, independent of pH.
For a further data set, the target named is CAXII (Homo sapiens, UniProt O43570). The data set can be described thus: fluorescent thermal shift assay (FTSA), CAXII. In kind it is binding. The conditions noted are these: 37 °C; for ΔGintr CAXII: converted from Kd_intr, independent of pH; for ΔGobs CAXII: converted from Kd_obs, pH 7.0, FTSA.
Chain of CAXII (O43570 25-354): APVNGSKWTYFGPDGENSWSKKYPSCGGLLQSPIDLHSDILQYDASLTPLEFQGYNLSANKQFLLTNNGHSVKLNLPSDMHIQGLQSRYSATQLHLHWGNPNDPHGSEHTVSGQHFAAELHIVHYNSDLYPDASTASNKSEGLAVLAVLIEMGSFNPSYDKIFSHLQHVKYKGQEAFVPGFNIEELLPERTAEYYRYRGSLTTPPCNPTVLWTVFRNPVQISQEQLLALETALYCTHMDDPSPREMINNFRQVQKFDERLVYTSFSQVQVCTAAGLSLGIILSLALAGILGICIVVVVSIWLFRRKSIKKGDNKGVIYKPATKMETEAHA

Chain of CAVB (Q9Y2D0 34-317): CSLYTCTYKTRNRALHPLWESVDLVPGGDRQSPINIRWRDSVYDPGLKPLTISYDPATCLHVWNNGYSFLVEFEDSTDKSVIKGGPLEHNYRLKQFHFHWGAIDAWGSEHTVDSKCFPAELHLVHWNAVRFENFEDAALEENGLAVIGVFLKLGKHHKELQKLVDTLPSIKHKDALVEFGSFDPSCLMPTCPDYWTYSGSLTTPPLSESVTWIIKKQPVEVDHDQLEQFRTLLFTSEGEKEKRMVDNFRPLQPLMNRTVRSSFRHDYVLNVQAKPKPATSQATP
Chain of CAVII (P43166 whole entry): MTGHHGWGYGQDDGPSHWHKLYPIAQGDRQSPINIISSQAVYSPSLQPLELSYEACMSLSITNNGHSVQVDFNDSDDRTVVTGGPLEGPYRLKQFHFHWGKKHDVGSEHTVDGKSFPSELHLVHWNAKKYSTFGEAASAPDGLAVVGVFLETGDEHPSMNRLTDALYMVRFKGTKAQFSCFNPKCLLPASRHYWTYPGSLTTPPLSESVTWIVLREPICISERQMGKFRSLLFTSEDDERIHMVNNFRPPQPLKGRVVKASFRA
Chain of CAIII (P07451 whole entry): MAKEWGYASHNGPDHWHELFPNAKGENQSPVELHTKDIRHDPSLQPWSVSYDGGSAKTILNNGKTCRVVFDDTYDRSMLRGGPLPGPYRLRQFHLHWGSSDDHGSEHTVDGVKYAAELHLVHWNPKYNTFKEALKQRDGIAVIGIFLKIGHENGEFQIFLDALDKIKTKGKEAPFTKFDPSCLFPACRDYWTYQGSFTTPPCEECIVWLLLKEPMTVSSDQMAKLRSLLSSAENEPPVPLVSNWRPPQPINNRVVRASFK
Chain of CAXIV (Q9ULX7 16-337): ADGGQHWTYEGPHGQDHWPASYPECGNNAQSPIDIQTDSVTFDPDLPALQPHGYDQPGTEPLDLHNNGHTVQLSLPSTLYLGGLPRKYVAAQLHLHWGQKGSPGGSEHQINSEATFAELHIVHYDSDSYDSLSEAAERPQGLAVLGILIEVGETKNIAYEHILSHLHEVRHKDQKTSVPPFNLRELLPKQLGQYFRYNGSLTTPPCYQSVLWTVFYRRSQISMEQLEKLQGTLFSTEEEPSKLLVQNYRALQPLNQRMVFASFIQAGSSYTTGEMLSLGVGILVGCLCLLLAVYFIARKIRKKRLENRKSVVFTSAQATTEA
Chain of CAXIII (Q8N1Q1 whole entry): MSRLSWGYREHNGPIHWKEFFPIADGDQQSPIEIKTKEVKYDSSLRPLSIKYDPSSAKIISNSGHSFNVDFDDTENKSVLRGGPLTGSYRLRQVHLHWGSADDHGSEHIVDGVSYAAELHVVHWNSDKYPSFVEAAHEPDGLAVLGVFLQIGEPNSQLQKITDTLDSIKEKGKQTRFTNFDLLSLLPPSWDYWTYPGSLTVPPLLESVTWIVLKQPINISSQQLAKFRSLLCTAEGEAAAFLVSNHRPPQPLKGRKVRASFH
Chain of CAVA (P35218 39-305): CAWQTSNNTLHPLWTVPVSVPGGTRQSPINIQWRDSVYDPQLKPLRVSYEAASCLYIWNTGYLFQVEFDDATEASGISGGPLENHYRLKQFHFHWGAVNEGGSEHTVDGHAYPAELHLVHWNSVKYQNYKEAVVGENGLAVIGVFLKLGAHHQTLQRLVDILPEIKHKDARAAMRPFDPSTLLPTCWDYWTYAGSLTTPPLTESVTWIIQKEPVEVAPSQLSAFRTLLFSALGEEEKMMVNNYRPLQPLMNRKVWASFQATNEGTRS
Chain of CAI (P00915 whole entry): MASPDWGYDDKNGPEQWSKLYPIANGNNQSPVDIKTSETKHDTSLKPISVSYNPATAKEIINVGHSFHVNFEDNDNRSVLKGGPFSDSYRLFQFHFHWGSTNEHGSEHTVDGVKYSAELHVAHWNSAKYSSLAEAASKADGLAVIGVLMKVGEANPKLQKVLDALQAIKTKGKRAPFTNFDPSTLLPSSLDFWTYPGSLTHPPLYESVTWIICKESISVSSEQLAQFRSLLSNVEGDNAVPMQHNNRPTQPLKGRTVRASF
Chain of CAIV (P22748 19-312): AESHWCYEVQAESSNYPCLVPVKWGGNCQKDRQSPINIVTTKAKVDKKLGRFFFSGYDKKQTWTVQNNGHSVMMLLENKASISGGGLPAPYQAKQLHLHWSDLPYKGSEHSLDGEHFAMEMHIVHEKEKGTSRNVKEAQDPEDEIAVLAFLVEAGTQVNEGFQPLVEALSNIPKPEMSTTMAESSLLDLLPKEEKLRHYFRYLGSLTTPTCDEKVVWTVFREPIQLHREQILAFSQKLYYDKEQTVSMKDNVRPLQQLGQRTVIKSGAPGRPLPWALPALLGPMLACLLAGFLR
Chain of CAVI (P23280 18-308): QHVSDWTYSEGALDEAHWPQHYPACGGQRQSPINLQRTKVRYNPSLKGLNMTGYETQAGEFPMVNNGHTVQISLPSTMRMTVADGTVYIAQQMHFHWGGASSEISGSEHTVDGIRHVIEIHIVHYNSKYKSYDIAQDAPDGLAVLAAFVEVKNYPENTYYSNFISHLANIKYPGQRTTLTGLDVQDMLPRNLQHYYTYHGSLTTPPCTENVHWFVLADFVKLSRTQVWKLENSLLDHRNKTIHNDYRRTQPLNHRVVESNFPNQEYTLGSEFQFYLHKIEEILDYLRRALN

In the case of `COC(=O)c1cc(S(N)(=O)=O)c(Cl)cc1Sc1cccc2ccccc12` [Compound 5f, Methyl 4-chloro-2-(1-naphthylsulfanyl)-5-sulfamoyl-benzoate], at CAIX, the “ΔGintr CAIX” value is on record as -63.0 kJ/mol and the “ΔGobs CAIX” value is -45.5 kJ/mol. For the same compound, on CAIII, the “ΔGintr CAIII” value is at least -39.9 kJ/mol and the “ΔGobs CAIII” value is at least -22.0 kJ/mol. Also, on CAVB, the “ΔGintr CAVB” value is on record as -53.4 kJ/mol and the “ΔGobs CAVB” value is -37.3 kJ/mol. Further, on CAXIII, the “ΔGintr CAXIII” value is on record as -57.5 kJ/mol and the “ΔGobs CAXIII” value was -43.0 kJ/mol. In addition, at CAVA, the “ΔGintr CAVA” value was -39.2 kJ/mol and the “ΔGobs CAVA” value is recorded as -23.9 kJ/mol. Besides, the “f RSO2NH-, fraction of deprotonated sulfonamide” value (“f RSO2NH-, fraction” below) in data set [1] is 0.4%. Also, on CAI, the “ΔGintr CAI” value is -41.6 kJ/mol and the “ΔGobs CAI” value is -27.2 kJ/mol. In addition, in [2], the solubility entry is “LS”. On CAII, the “ΔGintr CAII” value was -57.7 kJ/mol and the “ΔGobs CAII” value is listed as -41.3 kJ/mol. In addition, on CAVI, the “ΔGintr CAVI” value is -49.3 kJ/mol and the “ΔGobs CAVI” value is -28.8 kJ/mol. At CAIV, the “ΔGintr CAIV” value is -42.3 kJ/mol and the “ΔGobs CAIV” value was -24.8 kJ/mol. Also, on CAXIV, the “ΔGintr CAXIV” value is given as -41.6 kJ/mol and the “ΔGobs CAXIV” value was -24.9 kJ/mol. The “ΔGobs CAVII” value on CAVII is recorded as -35.4 kJ/mol.

A word on the pKa: it is the negative logarithm of the acid dissociation constant. For the compound `COC(=O)c1cc(S(N)(=O)=O)c(Cl)cc1Cl` [Compound 1, Methyl 2,4-dichloro-5-sulfamoyl-benzoate], at CAIX, the “ΔGintr CAIX” value is given as -57.5 kJ/mol and the “ΔGobs CAIX” value is reported as -42.9 kJ/mol. For the same compound, on CAIII, the “ΔGintr CAIII” value is listed as -40.5 kJ/mol and the “ΔGobs CAIII” value is -25.5 kJ/mol. Further, on CAVB, the “ΔGintr CAVB” value is given as -51.7 kJ/mol and the “ΔGobs CAVB” value is recorded as -38.6 kJ/mol. Moreover, at CAXIII, the “ΔGobs CAXIII” value was -42.0 kJ/mol. Further, on CAVA, the “ΔGintr CAVA” value is reported as -43.1 kJ/mol and the “ΔGobs CAVA” value was -30.7 kJ/mol. For the same compound, in [1], the “f RSO2NH-, fraction” value is given as 1.2% and the pKa was 8.9. For the same compound, on CAI, the “ΔGintr CAI” value is on record as -40.3 kJ/mol and the “ΔGobs CAI” value was -28.8 kJ/mol. In addition, on CAII, the “ΔGintr CAII” value was -55.8 kJ/mol and the “ΔGobs CAII” value is on record as -42.4 kJ/mol. On CAVI, the “ΔGintr CAVI” value was -57.7 kJ/mol and the “ΔGobs CAVI” value is -40.2 kJ/mol. At CAIV, the “ΔGintr CAIV” value is given as -54.6 kJ/mol and the “ΔGobs CAIV” value is -40.0 kJ/mol. Besides, at CAXII, the “ΔGintr CAXII” value is on record as -50.9 kJ/mol and the “ΔGobs CAXII” value was -37.1 kJ/mol. Further, on CAXIV, the “ΔGintr CAXIV” value is -56.2 kJ/mol and the “ΔGobs CAXIV” value was -42.4 kJ/mol. For the same compound, at CAVII, the “ΔGintr CAVII” value is given as -56.4 kJ/mol and the “ΔGobs CAVII” value is -42.6 kJ/mol.

For `COC(=O)c1cc(S(N)(=O)=O)c(S(=O)(=O)C2CCCCC2)cc1Br` [Compound 8b, Methyl 2-bromo-4-cyclohexylsulfonyl-5-sulfamoylbenzoate], at CAIX, the “ΔGintr CAIX” value was -51.2 and the “ΔGobs CAIX” value is -30.7 kJ/mol. For the same compound, at CAIII, the “ΔGintr CAIII” value is recorded as at least -42.9 kJ/mol and the “ΔGobs CAIII” value is recorded as at least -22.0 kJ/mol. On CAVB, the “ΔGintr CAVB” value was at least -41.0 kJ/mol and the “ΔGobs CAVB” value is at least -22.0 kJ/mol. At CAXIII, the “ΔGintr CAXIII” value is given as -42.1 kJ/mol and the “ΔGobs CAXIII” value is on record as -24.6 kJ/mol. For the same compound, on CAVA, the “ΔGintr CAVA” value is at least -40.2 kJ/mol and the “ΔGobs CAVA” value was at least -22.0 kJ/mol. In [1], the “f RSO2NH-, fraction” value is listed as 0.1% and the pKa was 9.9. Also, at CAI, the “ΔGintr CAI” value is at least -39.4 kJ/mol and the “ΔGobs CAI” value is given as at least -22.0 kJ/mol. For the same compound, at CAII, the “ΔGintr CAII” value was at least -41.3 kJ/mol and the “ΔGobs CAII” value is reported as at least -22.0 kJ/mol. On CAVI, the “ΔGintr CAVI” value is listed as at least -45.4 kJ/mol and the “ΔGobs CAVI” value is at least -22.0 kJ/mol. Moreover, on CAIV, the “ΔGintr CAIV” value is reported as -46.2 kJ/mol and the “ΔGobs CAIV” value is on record as -25.8 kJ/mol. At CAXII, the “ΔGintr CAXII” value is reported as at least -41.6 kJ/mol and the “ΔGobs CAXII” value is at least -22.0 kJ/mol. At CAXIV, the “ΔGintr CAXIV” value is listed as at least -41.6 kJ/mol and the “ΔGobs CAXIV” value was at least -22.0 kJ/mol. Besides, at CAVII, the “ΔGintr CAVII” value is recorded as at least -41.6 kJ/mol and the “ΔGobs CAVII” value was at least -22.0 kJ/mol.

In the case of `COC(=O)c1cc(S(N)(=O)=O)c(Cl)cc1SCc1ccccc1` [Compound 5c, Methyl 2-benzylsulfanyl-4-chloro-5-sulfamoylbenzoate], on CAIX, the “ΔGintr CAIX” value was -64.1 kJ/mol and the “ΔGobs CAIX” value is on record as -46.6 kJ/mol. Besides, at CAIII, the “ΔGintr CAIII” value is listed as at least -39.9 kJ/mol and the “ΔGobs CAIII” value is on record as at least -22.0 kJ/mol. On CAVB, the “ΔGintr CAVB” value is reported as -53.6 kJ/mol and the “ΔGobs CAVB” value is listed as -37.6 kJ/mol. In addition, on CAXIII, the “ΔGintr CAXIII” value was -56.1 kJ/mol and the “ΔGobs CAXIII” value was -41.6 kJ/mol. Moreover, in data set [1], the “f RSO2NH-, fraction” value is given as 0.4%. For the same compound, on CAI, the “ΔGintr CAI” value is reported as -48.3 kJ/mol and the “ΔGobs CAI” value is given as -33.8 kJ/mol. In addition, the solubility entry in [2] is recorded as “LS”. On CAII, the “ΔGintr CAII” value was -60.8 kJ/mol and the “ΔGobs CAII” value is reported as -44.4 kJ/mol. At CAVI, the “ΔGobs CAVI” value was -38.9 kJ/mol. At CAXII, the “ΔGintr CAXII” value is recorded as -54.7 kJ/mol and the “ΔGobs CAXII” value is given as -38.0 kJ/mol. Besides, on CAXIV, the “ΔGintr CAXIV” value is -60.2 kJ/mol and the “ΔGobs CAXIV” value is given as -43.5 kJ/mol. Moreover, on CAVII, the “ΔGintr CAVII” value is listed as -57.7 kJ/mol and the “ΔGobs CAVII” value was -41.0 kJ/mol.

Turning to `COC(=O)c1cc(S(N)(=O)=O)c(Cl)cc1S(=O)(=O)Cc1ccccc1` [Compound 9c, Methyl 2-benzylsulfonyl-4-chloro-5-sulfamoylbenzoate], the “ΔGobs CAIX” value at CAIX is on record as -51.1 kJ/mol. On CAIII, the “ΔGintr CAIII” value is listed as -48.6 kJ/mol and the “ΔGobs CAIII” value is recorded as -37.7 kJ/mol. Besides, on CAVB, the “ΔGintr CAVB” value was -62.2 kJ/mol and the “ΔGobs CAVB” value was -53.2 kJ/mol. Also, at CAXIII, the “ΔGintr CAXIII” value is listed as -56.8 kJ/mol and the “ΔGobs CAXIII” value is -49.3 kJ/mol. In data set [1], the “f RSO2NH-, fraction” value is recorded as 5.9% and the pKa was 8.2. In addition, on CAI, the “ΔGintr CAI” value is -44.6 kJ/mol and the “ΔGobs CAI” value was -37.1 kJ/mol. On CAII, the “ΔGintr CAII” value was -58.7 kJ/mol and the “ΔGobs CAII” value is reported as -49.3 kJ/mol. Moreover, on CAVI, the “ΔGintr CAVI” value is -60.0 kJ/mol and the “ΔGobs CAVI” value was -46.6 kJ/mol. Besides, at CAIV, the “ΔGintr CAIV” value is -52.1 kJ/mol and the “ΔGobs CAIV” value is listed as -41.6 kJ/mol. Besides, on CAXII, the “ΔGintr CAXII” value is -55.4 kJ/mol and the “ΔGobs CAXII” value is -45.7 kJ/mol. Moreover, on CAXIV, the “ΔGintr CAXIV” value is on record as -60.7 kJ/mol and the “ΔGobs CAXIV” value is -51.0 kJ/mol. The “ΔGobs CAVII” value at CAVII was -51.1 kJ/mol.
